*1 amine or outer side, *2 acyl side, *3 side chain or, on linkers, in order; H or OH if unused. Where a SMILES comes first, the peptide text is derived from it. Side-chain parts run from the residue outwards. [ ]: non-standard residue; d: D form. The star is where a group is joined. C20 diacid = O=C(O)CCCCCCCCCCCCCCCCCCC(=O)*; γGlu = O=C(O)[C@H](CCC(=O)[*:2])N[*:1]; 4Pal = N[C@@H](Cc1ccncc1)C(=O)O; αMeL = CC(C)C[C@](C)(N)C(=O)O; Iva = CC[C@](C)(N)C(=O)O; Orn = NCCC[C@H](N)C(=O)O; AEEA = NCCOCCOCC(=O)O; Aib = CC(C)(N)C(=O)O Bounds are passed on as bounds.

The target of this assay is T1, human GLP-1R (Homo sapiens, UniProt P43220).
T1 construct: expressed in transfected cells; crude membranes
T1 sequence (P43220 24-463): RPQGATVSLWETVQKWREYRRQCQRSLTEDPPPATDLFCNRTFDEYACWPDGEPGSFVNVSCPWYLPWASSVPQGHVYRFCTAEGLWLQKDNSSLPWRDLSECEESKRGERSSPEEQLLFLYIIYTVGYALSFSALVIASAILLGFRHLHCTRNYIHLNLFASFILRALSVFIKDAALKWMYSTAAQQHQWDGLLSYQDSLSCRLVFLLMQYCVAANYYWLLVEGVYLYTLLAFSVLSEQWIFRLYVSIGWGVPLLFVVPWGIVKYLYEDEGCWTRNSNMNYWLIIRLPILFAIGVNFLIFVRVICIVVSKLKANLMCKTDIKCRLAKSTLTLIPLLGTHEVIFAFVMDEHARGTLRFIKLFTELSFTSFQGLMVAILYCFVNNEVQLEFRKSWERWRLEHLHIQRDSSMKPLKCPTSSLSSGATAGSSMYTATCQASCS
The experiment in a line: [125I]-GLP-1 binding, SPA with WGA beads, 0.1% bacitracin. Conditions: geometric mean, read-out: hGLP1R Ki. The gist of the method: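 Binding buffer was 25 mM HEPES pH 7.4 with 2.5 mM CaCl2, 1 mM MgCl2, 0.1% (w/v) bacitracin, 0.003% Tween-20 and EDTA-free protease inhibitors. Four-parameter regression gave IC50, converted to Ki (geometric mean, SEM, n independent days).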
For orientation: Ki means a measure of affinity in units of concentration, obtained from inhibition or displacement. In the case of `CC[C@H](C)[C@H](NC(=O)[C@H](CO)NC(=O)[C@H](Cc1ccc(O)cc1)NC(=O)[C@H](CC(=O)O)NC(=O)[C@H](CO)NC(=O)[C@@H](NC(=O)[C@](C)(CC)NC(=O)[C@@H](NC(=O)CNC(=O)[C@H](CCC(=O)O)NC(=O)C(C)(C)NC(=O)[C@@H](N)Cc1ccc(O)cc1)[C@@H](C)O)[C@@H](C)CC)C(=O)N[C@@](C)(CC(C)C)C(=O)N[C@@H](CC(C)C)C(=O)N[C@@H](CC(=O)O)C(=O)N[C@@H](CCCCN)C(=O)N[C@@H](CCCCNC(=O)COCCOCCNC(=O)COCCOCCNC(=O)CC[C@H](NC(=O)CCCCCCCCCCCCCCCCCCC(=O)O)C(=O)O)C(=O)N[C@@H](Cc1c[nH]cn1)C(=O)N[C@@H](CCC(N)=O)C(=O)NC(C)(C)C(=O)N[C@@H](CC(=O)O)C(=O)N[C@@H](Cc1ccccc1)C(=O)N[C@H](C(=O)N[C@@H](CCC(=O)O)C(=O)N[C@@H](Cc1ccncc1)C(=O)N[C@@H](CC(C)C)C(=O)N[C@@H](CC(C)C)C(=O)N[C@@H](CCC(=O)O)C(=O)NCC(=O)NCC(=O)N1CCC[C@H]1C(=O)N[C@@H](CO)C(=O)N[C@@H](CO)C(=O)NCC(=O)N[C@@H](C)C(=O)N1CCC[C@H]1C(=O)N1CCC[C@H]1C(=O)N1CCC[C@H]1C(=O)N[C@@H](CO)C(N)=O)C(C)C` [Example 74] (H-Y[Aib]EGT[Iva]ISDYSI[αMeL]LDKK([AEEA-AEEA-γGlu-C20 diacid])HQ[Aib]DFVE[4Pal]LLEGGPSSGAPPPS-NH2), the Ki turned out to be 395 nM.

In the case of `CC[C@H](C)[C@H](NC(=O)[C@H](CO)NC(=O)[C@H](Cc1ccc(O)cc1)NC(=O)[C@H](CC(=O)O)NC(=O)[C@H](CO)NC(=O)[C@@H](NC(=O)[C@](C)(CC)NC(=O)[C@@H](NC(=O)CNC(=O)[C@H](CCC(=O)O)NC(=O)C(C)(C)NC(=O)[C@@H](N)Cc1ccc(O)cc1)[C@@H](C)O)[C@@H](C)CC)C(=O)N[C@@](C)(CC(C)C)C(=O)N[C@@H](CC(C)C)C(=O)N[C@@H](CC(=O)O)C(=O)N[C@@H](CCCCN)C(=O)N[C@@H](CCCCNC(=O)COCCOCCNC(=O)COCCOCCNC(=O)CC[C@H](NC(=O)CCCCCCCCCCCCCCCCCCC(=O)O)C(=O)O)C(=O)N[C@@H](Cc1c[nH]cn1)C(=O)N[C@@H](CCC(N)=O)C(=O)NC(C)(C)C(=O)N[C@@H](CC(=O)O)C(=O)N[C@@H](Cc1ccccc1)C(=O)N[C@H](C(=O)N[C@@H](CCC(=O)O)C(=O)N[C@@H](Cc1ccncc1)C(=O)N[C@@H](CC(C)C)C(=O)N[C@@H](CC(C)C)C(=O)N[C@@H](CCC(=O)O)C(=O)N[C@H](C(=O)NCC(=O)N1CCC[C@H]1C(=O)N[C@@H](CO)C(=O)N[C@@H](CO)C(=O)NCC(=O)N[C@@H](C)C(=O)N1CCC[C@H]1C(=O)N1CCC[C@H]1C(=O)N1CCC[C@H]1C(=O)N[C@@H](CO)C(N)=O)[C@@H](C)O)C(C)C` [Example 75] (H-Y[Aib]EGT[Iva]ISDYSI[αMeL]LDKK([AEEA-AEEA-γGlu-C20 diacid])HQ[Aib]DFVE[4Pal]LLETGPSSGAPPPS-NH2), the Ki was over 902 nM.

As to `CC[C@H](C)[C@H](NC(=O)[C@H](CO)NC(=O)[C@H](Cc1ccc(O)cc1)NC(=O)[C@H](CC(=O)O)NC(=O)[C@H](CO)NC(=O)[C@@H](NC(=O)[C@](C)(CC)NC(=O)[C@@H](NC(=O)CNC(=O)[C@H](CCC(=O)O)NC(=O)C(C)(C)NC(=O)[C@@H](N)Cc1ccc(O)cc1)[C@@H](C)O)[C@@H](C)CC)C(=O)N[C@@](C)(CC(C)C)C(=O)N[C@@H](CC(C)C)C(=O)N[C@@H](CC(=O)O)C(=O)N[C@@H](CCCN)C(=O)N[C@@H](CCCCNC(=O)COCCOCCNC(=O)COCCOCCNC(=O)CC[C@H](NC(=O)CCCCCCCCCCCCCCCCCCC(=O)O)C(=O)O)C(=O)N[C@@H](Cc1c[nH]cn1)C(=O)N[C@@H](CCC(N)=O)C(=O)NC(C)(C)C(=O)N[C@@H](CC(=O)O)C(=O)N[C@@H](Cc1ccccc1)C(=O)N[C@H](C(=O)N[C@@H](CCC(=O)O)C(=O)N[C@@H](Cc1ccncc1)C(=O)N[C@@H](CC(C)C)C(=O)N[C@@H](CC(C)C)C(=O)N[C@@H](CCC(=O)O)C(=O)NCC(=O)NCC(=O)N1CCC[C@H]1C(=O)N[C@@H](CO)C(=O)N[C@@H](CO)C(=O)NCC(=O)N[C@@H](C)C(=O)N1CCC[C@H]1C(=O)N1CCC[C@H]1C(=O)N1CCC[C@H]1C(=O)N[C@@H](CO)C(N)=O)C(C)C` [Example 76] (H-Y[Aib]EGT[Iva]ISDYSI[αMeL]LD[Orn]K([AEEA-AEEA-γGlu-C20 diacid])HQ[Aib]DFVE[4Pal]LLEGGPSSGAPPPS-NH2), the Ki amounted to 263 nM.

Turning to `CC[C@H](C)[C@H](NC(=O)[C@H](CO)NC(=O)[C@H](Cc1ccc(O)cc1)NC(=O)[C@H](CC(=O)O)NC(=O)[C@H](CO)NC(=O)[C@@H](NC(=O)[C@](C)(CC)NC(=O)[C@@H](NC(=O)CNC(=O)[C@H](CCC(=O)O)NC(=O)C(C)(C)NC(=O)[C@@H](N)Cc1ccc(O)cc1)[C@@H](C)O)[C@@H](C)CC)C(=O)N[C@@](C)(CC(C)C)C(=O)N[C@@H](CC(C)C)C(=O)N[C@@H](CC(=O)O)C(=O)N[C@@H](CCCN)C(=O)N[C@@H](CCCCNC(=O)COCCOCCNC(=O)COCCOCCNC(=O)CC[C@H](NC(=O)CCCCCCCCCCCCCCCCCCC(=O)O)C(=O)O)C(=O)N[C@@H](Cc1c[nH]cn1)C(=O)N[C@@H](CCC(N)=O)C(=O)NC(C)(C)C(=O)N[C@@H](CC(=O)O)C(=O)N[C@@H](Cc1ccccc1)C(=O)N[C@H](C(=O)N[C@@H](CCC(=O)O)C(=O)N[C@@H](Cc1ccncc1)C(=O)N[C@@H](CC(C)C)C(=O)N[C@@H](CC(C)C)C(=O)N[C@@H](CCC(=O)O)C(=O)N[C@H](C(=O)NCC(=O)N1CCC[C@H]1C(=O)N[C@@H](CO)C(=O)N[C@@H](CO)C(=O)NCC(=O)N[C@@H](C)C(=O)N1CCC[C@H]1C(=O)N1CCC[C@H]1C(=O)N1CCC[C@H]1C(=O)N[C@@H](CO)C(N)=O)[C@@H](C)O)C(C)C` [Example 77] (H-Y[Aib]EGT[Iva]ISDYSI[αMeL]LD[Orn]K([AEEA-AEEA-γGlu-C20 diacid])HQ[Aib]DFVE[4Pal]LLETGPSSGAPPPS-NH2), the Ki was over 905 nM.

With `CC[C@H](C)[C@H](NC(=O)[C@H](Cc1ccccc1)NC(=O)[C@@H](NC(=O)CNC(=O)[C@H](CCC(=O)O)NC(=O)C(C)(C)NC(=O)[C@@H](N)Cc1ccc(O)cc1)[C@@H](C)O)C(=O)N[C@@H](CO)C(=O)N[C@@H](CC(=O)O)C(=O)N[C@@H](Cc1ccc(O)cc1)C(=O)N[C@@H](CO)C(=O)N[C@H](C(=O)N[C@@](C)(CC(C)C)C(=O)N[C@@H](CC(C)C)C(=O)N[C@@H](CC(=O)O)C(=O)N[C@@H](CCCCN)C(=O)N[C@@H](CCCCNC(=O)COCCOCCNC(=O)COCCOCCNC(=O)CC[C@H](NC(=O)CCCCCCCCCCCCCCCCCCC(=O)O)C(=O)O)C(=O)N[C@@H](Cc1c[nH]cn1)C(=O)N[C@@H](CCC(N)=O)C(=O)NC(C)(C)C(=O)N[C@@H](CC(=O)O)C(=O)N[C@@H](Cc1ccccc1)C(=O)N[C@H](C(=O)N[C@@H](CCC(=O)O)C(=O)N[C@@H](Cc1ccncc1)C(=O)N[C@@H](CC(C)C)C(=O)N[C@@H](CC(C)C)C(=O)N[C@@H](C)C(=O)N[C@@H](C)C(=O)NCC(=O)N1CCC[C@H]1C(=O)N[C@@H](CO)C(=O)N[C@@H](CO)C(=O)NCC(=O)N[C@@H](C)C(=O)N1CCC[C@H]1C(=O)N1CCC[C@H]1C(=O)N1CCC[C@H]1C(=O)N[C@@H](CO)C(N)=O)C(C)C)[C@@H](C)CC` [Example 78], the Ki came to 394 nM.

On to `CC[C@H](C)[C@H](NC(=O)[C@H](Cc1ccccc1)NC(=O)[C@@H](NC(=O)CNC(=O)[C@H](CCC(=O)O)NC(=O)C(C)(C)NC(=O)[C@@H](N)Cc1ccc(O)cc1)[C@@H](C)O)C(=O)N[C@@H](CO)C(=O)N[C@@H](CC(=O)O)C(=O)N[C@@H](Cc1ccc(O)cc1)C(=O)N[C@@H](CO)C(=O)N[C@H](C(=O)N[C@@](C)(CC(C)C)C(=O)N[C@@H](CC(C)C)C(=O)N[C@@H](CC(=O)O)C(=O)N[C@@H](CCCCN)C(=O)N[C@@H](CCCCNC(=O)COCCOCCNC(=O)COCCOCCNC(=O)CC[C@H](NC(=O)CCCCCCCCCCCCCCCCCCC(=O)O)C(=O)O)C(=O)N[C@@H](Cc1c[nH]cn1)C(=O)N[C@@H](CCC(N)=O)C(=O)NC(C)(C)C(=O)N[C@@H](CC(=O)O)C(=O)N[C@@H](Cc1ccccc1)C(=O)N[C@H](C(=O)N[C@@H](CCC(=O)O)C(=O)N[C@@H](Cc1ccncc1)C(=O)N[C@@H](CC(C)C)C(=O)N[C@@H](CC(C)C)C(=O)N[C@@H](C)C(=O)N[C@@H](CCC(N)=O)C(=O)NCC(=O)N1CCC[C@H]1C(=O)N[C@@H](CO)C(=O)N[C@@H](CO)C(=O)NCC(=O)N[C@@H](C)C(=O)N1CCC[C@H]1C(=O)N1CCC[C@H]1C(=O)N1CCC[C@H]1C(=O)N[C@@H](CO)C(N)=O)C(C)C)[C@@H](C)CC` [Example 79] (H-Y[Aib]EGTFISDYSI[αMeL]LDKK([AEEA-AEEA-γGlu-C20 diacid])HQ[Aib]DFVE[4Pal]LLAQGPSSGAPPPS-NH2), for which the inhibition constant Ki came to 486 nM.

In the case of `CC[C@H](C)[C@H](NC(=O)[C@H](Cc1ccccc1)NC(=O)[C@@H](NC(=O)CNC(=O)[C@H](CCC(=O)O)NC(=O)C(C)(C)NC(=O)[C@@H](N)Cc1ccc(O)cc1)[C@@H](C)O)C(=O)N[C@@H](CO)C(=O)N[C@@H](CC(=O)O)C(=O)N[C@@H](Cc1ccc(O)cc1)C(=O)N[C@@H](CO)C(=O)N[C@H](C(=O)N[C@@](C)(CC(C)C)C(=O)N[C@@H](CC(C)C)C(=O)N[C@@H](CC(=O)O)C(=O)N[C@@H](CCCN)C(=O)N[C@@H](CCCCNC(=O)COCCOCCNC(=O)COCCOCCNC(=O)CC[C@H](NC(=O)CCCCCCCCCCCCCCCCCCC(=O)O)C(=O)O)C(=O)N[C@@H](Cc1c[nH]cn1)C(=O)N[C@@H](CCC(N)=O)C(=O)NC(C)(C)C(=O)N[C@@H](CC(=O)O)C(=O)N[C@@H](Cc1ccccc1)C(=O)N[C@H](C(=O)N[C@@H](CCC(=O)O)C(=O)N[C@@H](Cc1ccncc1)C(=O)N[C@@H](CC(C)C)C(=O)N[C@@H](CC(C)C)C(=O)N[C@@H](CCC(=O)O)C(=O)N[C@H](C(=O)NCC(=O)N1CCC[C@H]1C(=O)N[C@@H](CO)C(=O)N[C@@H](CO)C(=O)NCC(=O)N[C@@H](C)C(=O)N1CCC[C@H]1C(=O)N1CCC[C@H]1C(=O)N1CCC[C@H]1C(=O)N[C@@H](CO)C(N)=O)[C@@H](C)O)C(C)C)[C@@H](C)CC` [Example 80] (H-Y[Aib]EGTFISDYSI[αMeL]LD[Orn]K([AEEA-AEEA-γGlu-C20 diacid])HQ[Aib]DFVE[4Pal]LLETGPSSGAPPPS-NH2), the Ki was over 906 nM.

The values are drawn from patent US12723063B2, “GIPR-agonist compounds” (Eli Lilly and Company, priority 2019, dated 2026).
